Measured values from patent US9656990B2, “Cathepsin cysteine protease inhibitors” (Merck Sharp & Dohme Corp., priority 2014, dated 2017).

Assays:
human cathepsin K = human cathepsin K (UniProt P43236, Y175D/V274L, species not given); test: Cathepsin K Assay; assay type: biochemical; conditions: IP from dose response curve; Z-Leu-Arg-AMC substrate, pH 5.5; read-out: hrbCat K (IP (nM))
human cathepsin F = biological target: T1, human cathepsin F (Homo sapiens, UniProt Q9UBX1); test: Cathepsin F Assay; assay type: biochemical; conditions: IP from dose response curve; Z-Phe-Arg-AMC substrate, pH 5.5; read-out: hCat F (IP (nM))
T1 sequence (Q9UBX1 271-484): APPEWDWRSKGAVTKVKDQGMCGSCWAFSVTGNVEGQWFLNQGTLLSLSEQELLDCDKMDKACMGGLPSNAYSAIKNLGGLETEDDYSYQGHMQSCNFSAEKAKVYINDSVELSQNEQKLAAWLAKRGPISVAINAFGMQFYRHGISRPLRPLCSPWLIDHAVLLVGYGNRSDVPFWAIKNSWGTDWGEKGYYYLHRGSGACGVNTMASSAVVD
Outline: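 Human cathepsin F (10 nM) preincubated 15 min at room temperature with compounds in 50 mM MES pH 5.5, 2.5 mM EDTA, 2.5 mM DTT, 10% DMSO. Z-Phe-Arg-AMC (8 μM) added; AMC release read by fluorescence (Ex 360/Em 460 nm) over 20 min, inhibition fit to dose-response model.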

| SMILES | IC50 (human cathepsin K) | IC50 (human cathepsin F) |
| --- | --- | --- |
| CN=S1(=O)CCN(c2ccc(-c3c([C@@H]4CCCC[C@H]4C(=O)NC4(C#N)CC4)nn(-c4ncccc4F)c3C)cc2)CC1 [Example 44, (1R,2R)-N-(1-cyanocyclopropyl)-2-(1-(3-fluoropyridin-2-yl)-5-methyl-4-(4-(1-(methylimino)-1-oxidothiomorpholino)phenyl)-1H-pyrazol-3-yl)cyclohexanecarboxamide] | 13.9 nM | 8840 nM |
| CC(C)(O)c1ccc(-n2cc(-c3ccc(N4CCS(=O)(=O)CC4)cc3)c([C@@H]3CCCC[C@H]3C(=O)NC3(C#N)CC3)n2)cc1 [Example 97, (1R,2R)-N-(1-cyanocyclopropyl)-2-(4-(4-(1,1-dioxidothiomorpholino)phen-yl)-1-(4-(2-hydroxypropan-2-yl)phenyl)-1H-pyrazol-3-yl)cyclohexanecarboxamide] | 0.8 nM | 764 nM |
| N#CC1(NC(=O)[C@@H]2CC(F)(F)CC[C@H]2c2nn(-c3ccc(F)cc3)c(CO)c2-c2ccc(N3CCS(=O)(=O)CC3)cc2)CC1 [Example 11, (1R,2R)—N-(1-Cyanocyclopropyl)-2-(4-(4-(1,1-dioxidothiomorpholino)phenyl)-1-(4-fluorophenyl)-5-(hydroxymethyl)-1H-pyrazol-3-yl)-5,5-difluorocyclohexanecarboxamide] | 1.41 nM | 125 nM |
| CC(C)[C@@H](C#N)NC(=O)[C@@H]1CC(F)(F)CC[C@H]1c1nn(-c2ccc(F)cn2)c(CO)c1-c1ccc(N2CCS(=O)(=O)CC2)cc1 [Example 69, (1R,2R)-N-((S)-1-cyano-2-methylpropyl)-2-(4-(4-(1,1-dioxidothiomorpholino)phen-yl)-1-(5-fluoropyridin-2-yl)-5-(hydroxymethyl)-1H-pyrazol-3-yl)-5,5-difluorocyclohexanecarbox-amide] | 2.68 nM | 225 nM |
| N#CC1(NC(=O)[C@@H]2CC(F)(F)CC[C@H]2c2nn(-c3ccc(F)cn3)c(CF)c2-c2ccc(N3CCS(=O)(=O)CC3)cc2)CC1 [Example 62, (1R,2R)-N-(1-cyanocyclopropyl)-2-(4-(4-(1,1-dioxidothiomorpholino)phen-yl)-5-(fluoromethyl)-1-(5-fluoropyridin-2-yl)-1H-pyrazol-3-yl)-5,5-difluorocyclohexanecarbox-amide] | 1.33 nM | 151 nM |
| CC1(C)CCC(C(=O)NC2(C#N)CC2)C(c2nn(-c3ccc(F)cc3)cc2-c2ccc(N3CCS(=O)(=O)CC3)cc2)C1 (single isomer, unassigned) [Example 116, (1R,2R or 1S,2S)-N-(1-cyanocyclopropyl)-2-(4-(4-(1,1-dioxidothiomorpholino)phen-yl)-1-(4-fluorophenyl)-1H-pyrazol-3-yl)-4,4-dimethylcyclohexanecarbox-amide] | 328 nM | 1200 nM |
| N#CC1(NC(=O)[C@@H]2CCCC[C@H]2c2nn(-c3cccc(OC(F)(F)F)c3)cc2-c2ccc(N3CCS(=O)(=O)CC3)cc2)CC1 [Example 122, (1R,2R)-N-(1-cyanocyclopropyl)-2-(4-(4-(1,1-dioxidothiomorpholino)phen-yl)-1-(3-(trifluoromethoxy)phenyl)-1H-pyrazol-3-yl)cyclohexanecarboxamide] | 0.78 nM | 466 nM |
| CN=S1(=O)CCN(c2ccc(-c3cn(-c4ccc(F)cc4)nc3[C@@H]3CCCC[C@H]3C(=O)NC3(C#N)CC3)cc2)CC1 [Example 130, (1R,2R)-N-(1-cyanocyclopropyl)-2-(1-(4-fluorophenyl)-4-(4-(1-(methylimino)-1-oxidothiomorpholino)phenyl)-1H-pyrazol-3-yl)cyclohexanecarboxamide] | 1.92 nM | 854 nM |
| N#Cc1ccccc1-n1cc(-c2ccc(N3CCS(=O)(=O)CC3)cc2)c([C@@H]2CCCC[C@H]2C(=O)NC2(C#N)CC2)n1 [Example 91, (1R,2R)-N-(1-cyanocyclopropyl)-2-(1-(2-cyanophenyl)-4-(4-(1,1-dioxidothiomorpholino)phen-yl)-1H-pyrazol-3-yl)cyclohexanecarboxamide] | 1.02 nM | 1020 nM |
| N#CC1(NC(=O)C2CC(F)(F)CCC2c2nn(-c3ccc(F)cc3)cc2-c2ccc(N3CCS(=O)(=O)CC3)cc2)CC1 (racemic) [Example 80, (1R,2R and 1S,2S)-N-(1-cyanocyclopropyl)-2-(4-(4-(1,1-dioxidothiomorpholino)phen-yl)-1-(4-fluorophenyl)-1H-pyrazol-3-yl)-5,5-difluorocyclohexanecarbox-amide] | 1 nM | 35 nM |
| N#CC1(NC(=O)[C@@H]2CCCC[C@H]2c2nn(-c3ccc(Cl)cn3)cc2-c2ccc(N3CCS(=O)(=O)CC3)cc2)CC1 [Example 146, (1R,2R)-2-(1-(5-chloropyridin-2-yl)-4-(4-(1,1-dioxidothiomorpholino)phen-yl)-1H-pyrazol-3-yl)-N-(1-cyanocyclopropyl)cyclohex-anecarboxamide] | 1.15 nM | 272 nM |
| N#CC1(NC(=O)[C@H]2CC(F)(F)CC[C@@H]2c2nn(-c3ccc(F)cc3)cc2-c2ccc(N3CCS(=O)(=O)CC3)cc2)CC1 [Example 84, (1S,2S)-N-(1-cyanocyclopropyl)-2-(4-(4-(1,1-dioxidothiomorpholino)phen-yl)-1-(4-fluorophenyl)-1H-pyrazol-3-yl)-5,5-difluorocyclohexanecarbox-amide] | 51.6 nM | 1050 nM |
| N#CC1(NC(=O)[C@@H]2CCCC[C@H]2c2nn(-c3cc(F)cnc3F)cc2-c2ccc(N3CCS(=O)(=O)CC3)cc2)CC1 [Example 169, (1R,2R)-N-(1-cyanocyclopropyl)-2-(1-(2,5-difluoropyridin-3-yl)-4-(4-(1,1-dioxidothiomorpholino)phen-yl)-1H-pyrazol-3-yl)cyclohexanecarboxamide] | 3.94 nM | 5670 nM |
| Cc1c(-c2ccc(N3CCS(=O)(=O)CC3)cc2)c([C@@H]2CCCC[C@H]2C(=O)NC2(C#N)CC2)nn1-c1ccc(F)cn1 [Example 157, (1R,2R)-N-(1-cyanocyclopropyl)-2-(4-(4-(1,1-dioxidothiomorpholino)phen-yl)-1-(5-fluoropyridin-2-yl)-5-methyl-1H-pyrazol-3-yl)cyclohexanecarboxamide] | 4.26 nM | 2980 nM |
| CN=S1(=O)CCN(c2ccc(-c3c([C@@H]4CCCC[C@H]4C(=O)N[C@@H](C)C#N)nn(-c4ncccc4F)c3C)cc2)CC1 [Example 47, (1R,2R)-N-((S)-1-cyanoethyl)-2-(1-(3-fluoropyridin-2-yl)-5-methyl-4-(4-(1-(methylimino)-1-oxidothiomorpholino)phenyl)-1H-pyrazol-3-yl)cyclohexanecarboxamide] | 5.48 nM | 3240 nM |
| CC(C#N)NC(=O)[C@@H]1CCC(F)(F)C[C@H]1c1nn(-c2ccc(F)cn2)cc1-c1ccc(N2CCS(=N)(=O)CC2)cc1 (single isomer, unassigned) [Example 23, (1R,2R)-N-((S or R)-1-cyanoethyl)-4,4-difluoro-2-(1-(5-fluoropyridin-2-yl)-4-(4-(1-imino-1-oxidothiomorpholino)phenyl)-1H-pyrazol-3-yl)cyclohexanecarboxamide] | 1.07 nM | 348 nM |
| N#CC1(NC(=O)[C@@H]2CCCC[C@H]2c2nn(-c3ccc(F)cn3)cc2-c2ccc(N3CCS(=O)(=O)CC3)cc2)CC1 [Example 145, (1R,2R)-N-(1-cyanocyclopropyl)-2-(4-(4-(1,1-dioxidothiomorpholino)phen-yl)-1-(5-fluoropyridin-2-yl)-1H-pyrazol-3-yl)cyclohexanecarboxamide] | 1.24 nM | 481 nM |
| CN=S1(=O)CCN(c2ccc(-c3cn(-c4ccc(F)cn4)nc3[C@@H]3CC(F)(F)CC[C@H]3C(=O)NC(C)C#N)cc2)CC1 (single isomer, unassigned) [Example 25, (1R,2R)-N-((S or R)-1-cyanoethyl)-4,4-difluoro-2-(1-(5-fluoropyridin-2-yl)-4-(4-(1-(methylimino)-1-oxidothiomorpholino)phenyl)-1H-pyrazol-3-yl)cyclohexanecarboxamide] | 0.52 nM | 431 nM |
| CS(=O)(=O)C1CN(c2ccc(-c3cn(-c4ccc(F)cc4)nc3[C@@H]3CCCC[C@H]3C(=O)NC3(C#N)CC3)cc2)C1 [Example 94, (1R,2R)-N-(1-cyanocyclopropyl)-2-(1-(4-fluorophenyl)-4-(4-(3-(methylsulfonyl)azetidin-1-yl)phenyl)-1H-pyrazol-3-yl)cyclohexanecarboxamide] | 2.57 nM | 2780 nM |
| N#CC1(NC(=O)[C@@H]2CCCC[C@H]2c2nn(-c3cncc(F)c3)cc2-c2ccc(N3CCS(=O)(=O)CC3)cc2)CC1 [Example 165, (1R,2R)-N-(1-cyanocyclopropyl)-2-(4-(4-(1,1-dioxidothiomorpholino)phen-yl)-1-(5-fluoropyridin-3-yl)-1H-pyrazol-3-yl)cyclohexanecarboxamide] | 0.9 nM | 319 nM |
| N#CC1(NC(=O)[C@@H]2CCCC[C@H]2c2nn(-c3ccc(F)cc3)cc2-c2ccc(N3CCS(=N)(=O)CC3)cc2)CC1 [Example 129, (1R,2R)-N-(1-cyanocyclopropyl)-2-(1-(4-fluorophenyl)-4-(4-(1-imino-1-oxidothiomorpholino)phenyl)-1H-pyrazol-3-yl)cyclohexanecarboxamide] | 1.84 nM | 932 nM |
